Experimental data taken from patent publication US20260022096A1, “NOVEL SULFONAMIDES AND THEIR USE AS NEUROPROTECTIVE AND/OR NEURORESTORATIVE AGENTS” (GENECODE, priority 2022, published 2026).

Target: T1, GFRα1-RET (Homo sapiens, UniProt P56159)
T1 construct: expressed in transfected cells; host or cells: MG87 murine fibroblasts, stably transfected
T1 sequence (P56159 25-429 limits assumed): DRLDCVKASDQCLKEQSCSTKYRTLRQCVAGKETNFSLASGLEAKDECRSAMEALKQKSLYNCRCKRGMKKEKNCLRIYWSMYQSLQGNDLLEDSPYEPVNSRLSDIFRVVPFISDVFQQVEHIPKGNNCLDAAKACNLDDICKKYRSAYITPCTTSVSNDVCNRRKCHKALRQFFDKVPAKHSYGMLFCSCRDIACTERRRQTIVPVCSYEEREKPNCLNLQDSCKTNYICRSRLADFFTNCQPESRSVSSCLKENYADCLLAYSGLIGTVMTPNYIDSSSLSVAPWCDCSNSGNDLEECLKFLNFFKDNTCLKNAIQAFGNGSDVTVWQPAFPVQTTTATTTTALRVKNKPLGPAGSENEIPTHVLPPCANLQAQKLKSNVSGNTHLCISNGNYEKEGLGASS
Assay: Elk1 reporter-gene (luciferase) assay in cells expressing GFRα1-RET
Type: cell-based
Conditions: MG87 murine fibroblasts stably transfected with PathDetect Elk-1, GFRα1 and RET, 6 concentrations, agonist/activator activity
Procedure: For ECso determination, a dose-response test was performed using 6 concentrations of each tested compound. Dose-response curves were fitted using the sigmoidal dose-response (variable slope) analysis in GraphPad Prism program (Graph Pad Inc) and ECso of agonist/activator activity was calculated. Dose-response experiments were all performed in duplicate, two times independently.

Structure (SMILES) | EC50 [nM]
COc1ccc(S(=O)(=O)N2CCC(N(C)c3ccccc3)C2)cc1N1C2CCC1CN(C(=O)c1ccc(F)cc1Cl)C2 (racemic) [compound 127, (2-chloro-4-fluoro-phenyl)-[(1S,5R)-8-[2-methoxy-5-[(3SR)-3-(N-methylanilino)pyrrolidin-1-yl]sulfonyl-phenyl]-3,8-diazabicyclo[3.2.1]octan-3-yl]methanone] | < 1000
CCCN(C)S(=O)(=O)c1ccc(OC)c(N2[C@@H]3COC[C@H]2CN(C(=O)c2ccc(F)cc2C(F)(F)F)C3)c1 [compound 023, 3-[(1S,5R)-7-[4-fluoro-2-(trifluoromethyl)benzoyl]-3-oxa-7,9-diazabicyclo[3.3.1]nonan-9-yl]-4-methoxy-N-methyl-N-propyl-benzenesulfonamide] | 10000 to 50000
O=C(c1cc(F)c(F)cc1Cl)N1C[C@H]2CC[C@@H](C1)N2c1cc(S(=O)(=O)N2CCC(c3ccccc3)CC2)cc2c1OCC2 [compound 061, (2-chloro-4,5-difluoro-phenyl)-[(1S,5R)-8-[5-[(4-phenyl-1-piperidyl)sulfonyl]-2,3-dihydrobenzofuran-7-yl]-3,8-diazabicyclo[3.2.1]octan-3-yl]methanone] | < 1000
COc1ccc(S(=O)(=O)N2CCC(CCc3ccccc3)CC2)cc1N1[C@@H]2CC[C@H]1CN(C(=O)c1cc(F)c(F)cc1Cl)C2 [compound 050, (2-chloro-4,5-difluoro-phenyl)-[(1S,5R)-8-[2-methoxy-5-[[4-(2-phenylethyl)-1-piperidyl]sulfonyl]phenyl]-3,8-diazabicyclo[3.2.1]octan-3-yl]methanone] | < 1000
CC(C)(C)NS(=O)(=O)c1cc(N2[C@@H]3CC[C@H]2CN(C(=O)c2ccc(F)cc2Cl)C3)c(O)c(C(F)(F)F)c1 [compound 089] | 1000 to 10000
CNC1CN(c2ccc(S(=O)(=O)N3CCC(c4ccccc4)CC3)cc2N2[C@@H]3CC[C@H]2CN(C(=O)c2ccc(F)cc2Cl)C3)C1 [compound 123, (2-chloro-4-fluoro-phenyl)-[(1S,5R)-8-[2-[3-(methylamino)azetidin-1-yl]-5-[(4-phenyl-1-piperidyl)sulfonyl]phenyl]-3,8-diazabicyclo[3.2.1]octan-3-yl]methanone] | < 1000
COc1ccc(S(=O)(=O)NC(C)(C)C)cc1N1[C@@H]2CC[C@H]1CN(C(=O)c1cc(F)c(F)cc1Cl)C2 [compound 129, N-tert-butyl-3-[(1S,5R)-3-(2-chloro-4,5-difluoro-benzoyl)-3,8-diazabicyclo[3.2.1]octan-8-yl]-4-methoxy-benzenesulfonamide] | < 1000
Cc1c(O)cc(S(=O)(=O)N2CCC(c3ccccc3)CC2)cc1N1[C@@H]2CC[C@H]1CN(C(=O)c1ccc(F)cc1Cl)C2 [compound 124, (2-chloro-4-fluoro-phenyl)-[(1S,5R)-8-[3-hydroxy-2-methyl-5-[(4-phenyl-1-piperidyl)sulfonyl]phenyl]-3,8-diazabicyclo[3.2.1]octan-3-yl]methanone] | < 1000
COc1ccc(S(=O)(=O)N2CCN([C@H]3C[C@@H]3c3ccc(F)cc3)CC2)cc1N1[C@@H]2CC[C@H]1CN(C(=O)c1ccc(F)cc1Cl)C2 (racemic) [compound 044, (2-chloro-4-fluoro-phenyl)-[(1S,5R)-8-[5-[4-[(1SR,2RS)-2-(4-fluorophenyl)cyclopropyl]piperazin-1-yl]sulfonyl-2-methoxy-phenyl]-3,8-diazabicyclo[3.2.1]octan-3-yl]methanone] | < 1000
O=C(c1ccc(F)cc1Cl)N1C[C@H]2CC[C@@H](C1)N2c1cc(S(=O)(=O)N2CCC(c3ccc(F)cc3)CC2)cc2c1OCC2 [compound 056, (2-chloro-4-fluoro-phenyl)-[(1S,5R)-8-[5-[[4-(4-fluorophenyl)-1-piperidyl]sulfonyl]-2,3-dihydrobenzofuran-7-yl]-3,8-diazabicyclo[3.2.1]octan-3-yl]methanone] | < 1000
O=C(c1ccc(F)cc1Cl)N1C[C@H]2CC[C@@H](C1)N2c1cc(S(=O)(=O)N2CCC(c3ccccc3)CC2)cc2c1OCCO2 [compound 118, (2-chloro-4-fluoro-phenyl)-[(1S,5R)-8-[7-[(4-phenyl-1-piperidyl)sulfonyl]-2,3-dihydro-1,4-benzodioxin-5-yl]-3,8-diazabicyclo[3.2.1]octan-3-yl]methanone] | < 1000
O=C(c1ccc(F)cc1Cl)N1C[C@H]2CC[C@@H](C1)N2c1cc(S(=O)(=O)N2CCC(c3ccc(F)cc3)CC2)cc(C(F)(F)F)c1O [compound 088, (2-chloro-4-fluoro-phenyl)-[(1S,5R)-8-[5-[[4-(4-fluorophenyl)-1-piperidyl]sulfonyl]-2-hydroxy-3-(trifluoromethyl)phenyl]-3,8-diazabicyclo[3.2.1]octan-3-yl]methanone] | < 1000
CCN(CC)S(=O)(=O)c1cnc(O)c(N2[C@@H]3CC[C@H]2CN(C(=O)c2ccc(F)cc2Cl)C3)c1 [compound 035] | 10000 to 50000
CCCN(C)S(=O)(=O)c1ccc(O)c(N2[C@@H]3CC[C@H]2CN(C(=O)c2ccc(F)cc2Cl)C3)c1 [compound 036, 3-[(1S,5R)-3-(2-chloro-4-fluoro-benzoyl)-3,8-diazabicyclo[3.2.1]octan-8-yl]-4-hydroxy-N-methyl-N-propyl-benzenesulfonamide] | 1000 to 10000
CCCN(C)S(=O)(=O)c1ccc(OC)c(N2C3CCC2CN(C(=O)c2ccc(F)cc2C(F)(F)F)C3)c1 [compound 024, 3-[3-[4-fluoro-2-(trifluoromethyl)benzoyl]-3,8-diazabicyclo[3.2.1]octan-8-yl]-4-methoxy-N-methyl-N-propyl-benzenesulfonamide] | 1000 to 10000
CC1(NS(=O)(=O)c2cc(Cl)c(O)c(N3[C@@H]4CC[C@H]3CN(C(=O)c3ccc(F)cc3Cl)C4)c2)COC1 [compound 108] | 1000 to 10000
O=C(c1ccc(F)cc1Cl)N1C[C@H]2CC[C@@H](C1)N2c1cc(S(=O)(=O)N2CCC(c3ccccc3)CC2)cc2c1OCC2 [compound 055, (2-chloro-4-fluoro-phenyl)-[(1S,5R)-8-[5-[(4-phenyl-1-piperidyl)sulfonyl]-2,3-dihydrobenzofuran-7-yl]-3,8-diazabicyclo[3.2.1]octan-3-yl]methanone] | < 1000
CCN(CC)S(=O)(=O)c1cnc(OCc2ccccc2)c(N2[C@@H]3CC[C@H]2CN(C(=O)c2ccc(F)cc2Cl)C3)c1 [compound 034, 6-benzyloxy-5-[(1S,5R)-3-(2-chloro-4-fluoro-benzoyl)-3,8-diazabicyclo[3.2.1]octan-8-yl]-N,N-diethyl-pyridine-3-sulfonamide] | < 1000
O=C(c1ccc(F)cc1Cl)N1C[C@H]2CC[C@@H](C1)N2c1cc(S(=O)(=O)N2CCC(F)CC2)cc2c1OCC2 [compound 130, (2-chloro-4-fluoro-phenyl)-[(1S,5R)-8-[5-[(4-fluoro-1-piperidyl)sulfonyl]-2,3-dihydrobenzofuran-7-yl]-3,8-diazabicyclo[3.2.1]octan-3-yl]methanone] | < 1000
CN(C(C)(C)C)S(=O)(=O)c1cc(Cl)c(O)c(N2[C@@H]3CC[C@H]2CN(C(=O)c2ccc(F)cc2Cl)C3)c1 [compound 107] | < 1000
COc1ccc(S(=O)(=O)N2CCC(c3cccc(C#N)c3)CC2)cc1N1[C@@H]2CC[C@H]1CN(C(=O)c1ccc(F)cc1Cl)C2 [compound 040, 3-[1-[3-[(1S,5R)-3-(2-chloro-4-fluoro-benzoyl)-3,8-diazabicyclo[3.2.1]octan-8-yl]-4-methoxy-phenyl]sulfonyl-4-piperidyl]benzonitrile] | < 1000
